Test results: paper PMC6271218, “Pharmacokinetics, Tissue Distribution and Excretion of Verticinone from F. hupehensis in Rats” (Molecules, 2014)

Assays:
[1] = Plasma protein binding in vitro by ultrafiltration, rat plasma; assay type: in vitro ADME, rats
Description: (§1) The ability of verticinone to bind to plasma protein was determined by the ultrafiltration method. A Centrifree Micropartition device (Millipore, Beverly, MA, USA) was used to separate unbound and bound verticinone. Verticinone of different concentrations were added into blank rat and human plasma to give final concentrations at 5, 30 and 100 ng/mL. The spiked plasma was incubated for 30 min at 37 °C and an aliquot (100 μL) was analyzed by previously described methods to determine the total concentration of verticinone. The ultrafiltrate was obtained by centrifuging at 14,000 rpm for 10 min. The concentration of unbound verticinone in filtrate was similarly determined by the previously described methods. The percentage of free fraction (p) of verticinone was calculated as follow: p = (concentration of verticinone in ultrafiltrate/concentration of verticinone in original spiked plasma sample) × 100%.

[2] = Plasma protein binding in vitro by ultrafiltration, human plasma; assay type: in vitro ADME, humans
Description: as §1

Molecule C[C@H]1CC[C@@H]2N(C1)C[C@H]1[C@@H]3C[C@H]4[C@@H](CC(=O)[C@H]5C[C@@H](O)CC[C@@]54C)[C@@H]3CC[C@@H]1[C@]2(C)O [verticinone, Verticinone] has a fraction unbound at 30 min, 5 ng/mL ([1]; rat plasma, 5 ng/mL, ultrafiltration, n = 4, read-out: Protein binding rates (%) (converted)) of 0.087, a fraction unbound at 30 min, 30 ng/mL ([1]; rat plasma, 30 ng/mL, ultrafiltration, n = 4, read-out: Protein binding rates (%)) of 0.09 and a fraction unbound at 30 min, 100 ng/mL ([1]; rat plasma, 100 ng/mL, ultrafiltration, n = 4, read-out: Protein binding rates (%) (converted)) of 0.102. For the same molecule, the fraction unbound at 30 min ([1]; rat, plasma, rats, concentration range 5~100 ng/mL) was 0.087 to 0.102, the fraction unbound at 30 min, 5 ng/mL ([2]; human plasma, 5 ng/mL, ultrafiltration, n = 4, read-out: Protein binding rates (%) (converted)) was 0.074 and the fraction unbound at 30 min, 30 ng/mL ([2]; human plasma, 30 ng/mL, ultrafiltration, n = 4, read-out: Protein binding rates (%) (converted)) was 0.105. For the same molecule, the fraction unbound at 30 min, 100 ng/mL ([2]; human plasma, 100 ng/mL, ultrafiltration, n = 4, read-out: Protein binding rates (%) (converted)) was 0.054 and the fraction unbound at 30 min ([2]; human, plasma, humans, concentration range 5~100 ng/mL) was 0.054 to 0.105.
